Measurements: patent US20140271770A1, “Methods And Compositions For Treating Post-Operative Pain Comprising Clonidine” (WARSAW ORTHOPEDIC, INC., priority 2013, published 2014)

Assay: 14 day pharmacokinetic study, clonidine strips implanted in intermuscular pockets, plasma clonidine by LC/MS/MS
Format: in vivo, beagle dogs
Conditions: mannitol as excipient in the clonidine strips
Text: Clonidine strips were surgically implanted in intermuscular pockets in beagle dogs to evaluate the in vivo clonidine elution and plasma clonidine concentrations. Four male and four female dogs were divided into two groups of two (per sex). Group 1 received 6 strips of formulation 640-51 (5% clonidine HCl, 5% mannitol, 60:40 LCL 5A polymer, micronized API) and Group 2 received 6 strips of formulation 640-73 (4% clonidine HCl, 7.5% mannitol, 60:40 LCL 5A polymer, milled 25 micron API).
Blood was drawn at 30 minutes and 1, 2, 4, 8, and 24 hours post-implant. Blood was then drawn daily through day 7, and again at days 10 and 14. The blood was processed to plasma and the clonidine concentration in the plasma was determined by high performance liquid chromatography and tandem mass spectroscopy (LC/MS/MS).

- effect on drug release within the first 72 hours: speeds up drug release
SMILES: OC[C@@H](O)[C@@H](O)[C@H](O)[C@H](O)CO [Mannitol]
